According to PMC8400955 (Pharmaceuticals, 2021):
Like-named read-outs stand apart in the source and are kept apart here.

How the values were obtained:
[1] = 7-day repeated-dose PK in rats; assay type: in vivo, Sprague Dawley rats; conditions: rat, plasma
Procedure: Groups of Sprague Dawley rats (n = 5/sex/group; n = 3/sex/TK group) were orally administered ZB716 (20% PG, 5% Solutol, and 75% of 40% HP-β-CD in DI water) at dose levels of 10, 100, and 400 mg/kg/day for 7 days. […] Systemic exposure, expressed as Cmax and AUClast values, increased with dose in a less than dose-proportional manner on days 1 and 7 (Figure 2). A slight gender difference was observed; generally, systemic exposures were higher in females than in males (male/female AUClast ratio = 0.442:0.883). Accumulation was observed only in male animals given 400 mg/kg/day.
Four-to-six-week-old Sprague Dawley rats (Crl: CD (SD)) (SPF/VAF) were purchased from Beijing Vital River Laboratory Animal Technology, Co. Ltd.). Six-month-old beagle dogs were purchased from Beijing Marshall Biotechnology Co. Ltd. Animals were quarantined/acclimated for 2–6 weeks prior to dose initiation. Both Sprague Dawley rats and beagle dogs were given oral administration of ZB716 (20% PG, 5% Solutol, and 75% of 40% HP-β-CD in water) at different dose levels. After treatment with the test articles, whole blood was collected from each study animal by puncture of the tail vein (0.4 mL of whole blood from rats) and/or the peripheral vein (0.6 mL of whole blood from dogs) into tubes containing K2EDTA at each timepoint: pre-dose, and 0.5, 1, 2, 4, 8, and 24 h post-dose. The plasma samples were divided into 2 aliquots (approximately equal in volume) and stored frozen at −75 ± 15 °C within 2 h of the collection until analysis at Pharmaron, China.
The stock solution of ZB716 (5.0 mg/mL) and ZB716-d6 (1 mg/mL) in ACN:DI Water = 1:1 was prepared and stored at −20 ± 5 °C. The desired serial concentrations of working reference analyte solutions were achieved by diluting a stock analyte solution with 50% acetonitrile (0.1% formic acid) in water solution. The bioanalytical LC–MS/MS method was validated for quantitative determination of ZB716 in Sprague Dawley rat plasma and beagle dog plasma, with acceptable selectivity, sensitivity, calibration curve, precision, and accuracy. This method is applicable for the determination of ZB716 in Sprague Dawley rat plasma and beagle dog plasma, with a lower limit of quantification of 20.0 ng/mL, and an upper limit of quantification of 10,000 ng/mL.
Five microliters of diluted supernatant was injected into the LC–MS/MS system (Shimadzu LC30AD HPLC system with a SynergiTM 4 μm Fusion-RP 80 Å (50 × 2 mm) column using gradient elution and a Triple Quad 5500 mass spectrometer) for quantitative analysis. The mobile phases used were 0.1% formic acid in deionized water and 0.1% formic acid in acetonitrile. The pharmacokinetic parameters T1/2 (the biological half-life), Cmax (maximal concentration), Tmax (time at which Cmax is observed), and AUC (area under the plasma concentration–time curve) were calculated from the plasma concentration versus time data using WinNonlin (Phoenix^TM, version 8.1, Mountain View, CA, USA). All PK studies were conducted by Pharmaron in Beijing, China.

CYP2C8 = molecular target: T1, CYP2C8 (Homo sapiens, UniProt P10632); assay: CYP inhibition in human liver microsomes, CYP2C8; assay type: in vitro ADME; conditions: HLM, marker substrate Amodiaquine
T1 sequence (P10632 1-490): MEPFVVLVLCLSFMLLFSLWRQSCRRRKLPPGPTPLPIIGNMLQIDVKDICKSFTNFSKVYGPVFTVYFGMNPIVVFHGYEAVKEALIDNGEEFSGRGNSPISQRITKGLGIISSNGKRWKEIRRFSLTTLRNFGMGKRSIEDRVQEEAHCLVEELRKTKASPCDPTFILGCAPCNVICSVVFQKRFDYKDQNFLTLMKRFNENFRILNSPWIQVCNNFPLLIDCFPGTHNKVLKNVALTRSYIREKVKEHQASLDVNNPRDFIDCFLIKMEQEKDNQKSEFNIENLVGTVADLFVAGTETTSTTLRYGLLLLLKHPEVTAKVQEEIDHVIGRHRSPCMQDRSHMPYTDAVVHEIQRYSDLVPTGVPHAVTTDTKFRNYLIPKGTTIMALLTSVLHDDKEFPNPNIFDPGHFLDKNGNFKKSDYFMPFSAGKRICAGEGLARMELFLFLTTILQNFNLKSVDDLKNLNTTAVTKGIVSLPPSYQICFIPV
Procedure: . The inhibition of CYP2B6 and 3A4 (when midazolam was used as the substrate) by ZB716 was not observed. The inhibitory potential of ZB716 on human CYP enzyme activities appears relatively low.
The final concentrations of ZB716 in the incubation system were 0, 0.05, 0.15, 0.5, 1.5, 5, and 15 µM (final organic solvent concentration ≤ 1%). […] . […] The concentrations of the isoform-specific metabolites derived from marker substrates were measured by UPLC–MS/MS. The IC50 values were calculated from the percentages of the rate of the metabolite formation relative to non-inhibited controls vs. the concentrations of ZB716 or positive control inhibitors. All incubations were performed in triplicate. The mean of the enzyme activity (% of non-inhibited control) for each concentration was plotted against the log inhibitor concentration, and fitted to an IC50 curve.

[2] = female, Sprague Dawley (Crl: CD (SD)), po, 400 mg/kg/day, day 1, PO 400 mg/kg/day, F
[3] = female, Sprague Dawley, po, 10 mg/kg/day, day 1, PO 10 mg/kg/day, F
[4] = female, Sprague Dawley, po, 10 mg/kg/day, day 7, PO 10 mg/kg/day, F
[5] = female, Sprague Dawley, po, 100 mg/kg/day, day 7, PO 100 mg/kg/day, F
[6] = female, Sprague Dawley, po, 400 mg/kg/day, day 7, PO 400 mg/kg/day, F
[7] = male, Sprague Dawley (Crl: CD (SD)), po, 10 mg/kg/day, day 7, PO 10 mg/kg/day, M
[8] = male, Sprague Dawley (Crl: CD (SD)), po, 400 mg/kg/day, day 1, PO 400 mg/kg/day, M
[9] = male, Sprague Dawley, po, 10 mg/kg/day, day 1, PO 10 mg/kg/day, M
[10] = male, Sprague Dawley, po, 100 mg/kg/day, day 1, PO 100 mg/kg/day, M
[11] = male, Sprague Dawley, po, 100 mg/kg/day, day 7, PO 100 mg/kg/day, M
[12] = male, Sprague Dawley, po, 400 mg/kg/day, day 7, PO 400 mg/kg/day, M

With `C[C@]12CC[C@@H]3c4ccc(B(O)O)cc4C[C@@H](CCCCCCCCC[S+]([O-])CCCC(F)(F)C(F)(F)F)[C@H]3[C@@H]1CC[C@@H]2O` (stereo partly drawn) [ZB716, fulvestrant-3-boronic acid] the Tmax ([1]; both sexes, Sprague Dawley, oral, 100 mg/kg/day, 10 and 100 mg/kg/day, day 1 and day 7, mostly, read-out: Tmax) was 30 to 60 min, the Tmax ([1]; both sexes, Sprague Dawley, oral, 400 mg/kg/day, day 1 and day 7, read-out: Tmax) was no more than 480 min and the AUC(0-t) ([1]; female, Sprague Dawley (Crl: CD (SD)), po, 100 mg/kg/day, day 1, PO 100 mg/kg/day, F) was 26.7 µg·h/mL. The AUC(0-t) [1, 2] was 27.9 µg·h/mL, the Cmax [1, 2] was 2.77 µg/mL and the Tmax ([1]; female, Sprague Dawley (Crl: CD (SD)), po, 400 mg/kg/day, day 1, PO 400 mg/kg/day, F, read-out: Tmax (median)) was 480 min. For the same molecule, the AUC(0-t) [1, 3] was 1.76 µg·h/mL, the Cmax [1, 3] was 0.459 µg/mL and the Tmax ([1]; female, Sprague Dawley, po, 10 mg/kg/day, day 1, PO 10 mg/kg/day, F, read-out: Tmax (median)) was 30 min. The AUC(0-t) [1, 4] was 2.82 µg·h/mL, the Cmax [1, 4] was 0.71 µg/mL and the Tmax ([1]; female, Sprague Dawley, po, 10 mg/kg/day, day 7, PO 10 mg/kg/day, F, read-out: Tmax (median)) was 30 min. The Cmax ([1]; female, Sprague Dawley, po, 100 mg/kg/day, day 1, PO 100 mg/kg/day, F) was 3.35 µg/mL, the Tmax ([1]; female, Sprague Dawley, po, 100 mg/kg/day, day 1, PO 100 mg/kg/day, F, read-out: Tmax (median)) was 60 min and the AUC(0-t) [1, 5] was 20.7 µg·h/mL. The Cmax [1, 5] was 2.75 µg/mL, the Tmax ([1]; female, Sprague Dawley, po, 100 mg/kg/day, day 7, PO 100 mg/kg/day, F, read-out: Tmax (median)) was 30 min and the AUC(0-t) [1, 6] was 37.1 µg·h/mL. For the same molecule, the Cmax [1, 6] was 3.71 µg/mL, the Tmax ([1]; female, Sprague Dawley, po, 400 mg/kg/day, day 7, PO 400 mg/kg/day, F, read-out: Tmax (median)) was 30 min and the AUC(0-t) [1, 7] was 2.25 µg·h/mL. For the same molecule, the Cmax [1, 7] was 0.322 µg/mL, the Tmax ([1]; male, Sprague Dawley (Crl: CD (SD)), po, 10 mg/kg/day, day 7, PO 10 mg/kg/day, M, read-out: Tmax (median)) was 60 min and the AUC(0-t) [1, 8] was 15.2 µg·h/mL. For the same molecule, the Cmax [1, 8] was 1.92 µg/mL, the Tmax ([1]; male, Sprague Dawley (Crl: CD (SD)), po, 400 mg/kg/day, day 1, PO 400 mg/kg/day, M, read-out: Tmax (median)) was 480 min and the AUC(0-t) [1, 9] was 1.32 µg·h/mL. The Cmax [1, 9] was 0.365 µg/mL, the Tmax ([1]; male, Sprague Dawley, po, 10 mg/kg/day, day 1, PO 10 mg/kg/day, M, read-out: Tmax (median)) was 30 min and the AUC(0-t) [1, 10] was 11.8 µg·h/mL. For the same molecule, the Cmax [1, 10] was 1.42 µg/mL, the Tmax ([1]; male, Sprague Dawley, po, 100 mg/kg/day, day 1, PO 100 mg/kg/day, M, read-out: Tmax (median)) was 30 min and the AUC(0-t) [1, 11] was 12.9 µg·h/mL. The Cmax [1, 11] was 1.61 µg/mL, the Tmax ([1]; male, Sprague Dawley, po, 100 mg/kg/day, day 7, PO 100 mg/kg/day, M, read-out: Tmax (median)) was 30 min and the AUC(0-t) [1, 12] was 32.7 µg·h/mL. It also gave a Cmax [1, 12] of 2.34 µg/mL, a Tmax ([1]; male, Sprague Dawley, po, 400 mg/kg/day, day 7, PO 400 mg/kg/day, M, read-out: Tmax (median)) of 480 min and an IC50 (CYP2C8) of 6.27 µM.
